# Calls of active or inactive are those of the source.
# Target: T1, Ephrin type-B receptor 3 (Homo sapiens, UniProt P54753)
# T1 sequence (P54753 whole entry): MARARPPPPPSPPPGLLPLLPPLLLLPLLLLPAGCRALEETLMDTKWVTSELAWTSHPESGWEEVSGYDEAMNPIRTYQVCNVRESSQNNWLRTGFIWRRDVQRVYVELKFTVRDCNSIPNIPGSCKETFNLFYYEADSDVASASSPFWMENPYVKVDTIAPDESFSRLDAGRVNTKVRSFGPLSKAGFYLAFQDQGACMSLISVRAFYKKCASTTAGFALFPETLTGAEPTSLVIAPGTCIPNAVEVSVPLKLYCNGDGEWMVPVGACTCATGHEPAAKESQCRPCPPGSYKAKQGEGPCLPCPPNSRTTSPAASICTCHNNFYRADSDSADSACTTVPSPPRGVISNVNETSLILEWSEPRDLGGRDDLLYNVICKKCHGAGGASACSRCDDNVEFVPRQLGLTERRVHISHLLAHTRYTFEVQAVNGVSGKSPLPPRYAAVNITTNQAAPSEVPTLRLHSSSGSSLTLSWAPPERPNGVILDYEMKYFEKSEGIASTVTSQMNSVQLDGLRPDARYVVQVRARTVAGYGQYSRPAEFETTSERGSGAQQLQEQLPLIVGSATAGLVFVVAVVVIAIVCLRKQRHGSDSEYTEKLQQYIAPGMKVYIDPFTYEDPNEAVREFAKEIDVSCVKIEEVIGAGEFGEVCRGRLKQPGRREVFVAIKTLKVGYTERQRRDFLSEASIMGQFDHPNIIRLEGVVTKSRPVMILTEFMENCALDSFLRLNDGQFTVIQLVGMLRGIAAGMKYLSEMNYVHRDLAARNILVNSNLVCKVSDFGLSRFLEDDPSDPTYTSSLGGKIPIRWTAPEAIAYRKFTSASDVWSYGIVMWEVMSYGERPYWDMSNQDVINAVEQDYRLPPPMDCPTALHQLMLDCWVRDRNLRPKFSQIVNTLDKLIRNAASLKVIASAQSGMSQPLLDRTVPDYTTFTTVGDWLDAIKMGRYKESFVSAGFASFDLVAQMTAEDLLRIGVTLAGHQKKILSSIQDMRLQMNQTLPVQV
# Note: in the data inactive means no Kd found up to 30 µM.
row,SMILES,Kd
1,N[C@@H]1CCCN(c2c(/C=C3\SC(=O)NC3=O)cccc2-c2ccccc2)C1,> 30 µM (inactive)
2,Cc1ccc(S(=O)(=O)Nc2nc3ccccc3nc2Nc2ccc3nsnc3c2)cc1,> 30 µM (inactive)
3,CN1CC[C@@H](c2c(O)cc(O)c3c(=O)cc(-c4ccccc4Cl)oc23)[C@@H]1CO,> 30 µM (inactive)
4,Cc1cc(-c2cc(O)ccc2Cl)cc2nnc(Nc3ccc(OCCN4CCCC4)cc3)nc12,0.002 µM (active)
5,CCN1CCN(Cc2ccc(-c3cc4c(N[C@H](C)c5ccccc5)ncnc4[nH]3)cc2)CC1 [AEE-788],> 30 µM (inactive)
6,Cn1ncc(Cl)c1-c1cc(C(=O)N[C@H](CN)Cc2cccc(F)c2)sc1Cl [AFURESERTIB],> 30 µM (inactive)

# Target: Epithelial discoidin domain-containing receptor 1 (Homo sapiens, UniProt Q08345)
# Sequence (Q08345 whole entry, the tested form may be a part): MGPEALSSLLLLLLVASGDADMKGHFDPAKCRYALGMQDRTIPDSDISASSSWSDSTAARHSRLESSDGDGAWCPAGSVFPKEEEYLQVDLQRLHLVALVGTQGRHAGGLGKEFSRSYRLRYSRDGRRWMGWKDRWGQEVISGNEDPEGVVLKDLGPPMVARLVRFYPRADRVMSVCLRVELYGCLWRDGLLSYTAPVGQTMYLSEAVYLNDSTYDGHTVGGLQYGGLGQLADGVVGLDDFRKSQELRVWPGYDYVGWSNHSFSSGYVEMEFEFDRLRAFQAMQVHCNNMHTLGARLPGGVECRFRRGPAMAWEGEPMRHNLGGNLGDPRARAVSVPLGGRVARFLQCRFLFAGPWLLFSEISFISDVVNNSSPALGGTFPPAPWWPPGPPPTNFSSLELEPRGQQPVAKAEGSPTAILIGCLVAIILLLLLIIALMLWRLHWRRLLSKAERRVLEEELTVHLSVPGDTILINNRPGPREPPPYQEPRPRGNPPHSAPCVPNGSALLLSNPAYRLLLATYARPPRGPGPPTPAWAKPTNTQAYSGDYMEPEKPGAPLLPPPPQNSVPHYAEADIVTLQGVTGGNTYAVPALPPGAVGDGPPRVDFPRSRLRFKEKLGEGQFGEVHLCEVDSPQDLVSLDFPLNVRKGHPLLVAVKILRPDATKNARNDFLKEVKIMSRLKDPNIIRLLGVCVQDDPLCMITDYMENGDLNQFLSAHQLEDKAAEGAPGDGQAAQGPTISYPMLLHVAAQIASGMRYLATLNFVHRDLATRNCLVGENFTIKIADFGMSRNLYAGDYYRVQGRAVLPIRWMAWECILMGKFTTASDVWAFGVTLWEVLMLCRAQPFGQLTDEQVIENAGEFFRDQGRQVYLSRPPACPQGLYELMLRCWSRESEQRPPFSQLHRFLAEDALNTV
row,SMILES,Kd
1,N[C@@H]1CCCN(c2c(/C=C3\SC(=O)NC3=O)cccc2-c2ccccc2)C1,> 30 µM (inactive)
2,Cc1ccc(S(=O)(=O)Nc2nc3ccccc3nc2Nc2ccc3nsnc3c2)cc1,> 30 µM (inactive)
3,CN1CC[C@@H](c2c(O)cc(O)c3c(=O)cc(-c4ccccc4Cl)oc23)[C@@H]1CO,> 30 µM (inactive)
4,Cc1cc(-c2cc(O)ccc2Cl)cc2nnc(Nc3ccc(OCCN4CCCC4)cc3)nc12,0.003 µM (active)
5,CCN1CCN(Cc2ccc(-c3cc4c(N[C@H](C)c5ccccc5)ncnc4[nH]3)cc2)CC1 [AEE-788],5.22 µM (active)
6,Cn1ncc(Cl)c1-c1cc(C(=O)N[C@H](CN)Cc2cccc(F)c2)sc1Cl [AFURESERTIB],> 30 µM (inactive)

# Target: T2, Heme oxygenase 2 (Homo sapiens, UniProt P30519)
# T2 sequence (P30519 whole entry): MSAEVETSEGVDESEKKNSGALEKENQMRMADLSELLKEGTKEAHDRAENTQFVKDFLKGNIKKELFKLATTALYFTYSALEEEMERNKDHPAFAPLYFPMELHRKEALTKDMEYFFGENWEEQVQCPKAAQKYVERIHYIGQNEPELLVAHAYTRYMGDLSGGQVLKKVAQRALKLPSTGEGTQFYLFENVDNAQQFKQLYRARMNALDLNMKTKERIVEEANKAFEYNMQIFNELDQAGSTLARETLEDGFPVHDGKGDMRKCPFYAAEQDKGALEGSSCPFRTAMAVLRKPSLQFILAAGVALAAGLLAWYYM
row,SMILES,Kd
1,N[C@@H]1CCCN(c2c(/C=C3\SC(=O)NC3=O)cccc2-c2ccccc2)C1,> 30 µM (inactive)
2,Cc1ccc(S(=O)(=O)Nc2nc3ccccc3nc2Nc2ccc3nsnc3c2)cc1,> 30 µM (inactive)
3,CN1CC[C@@H](c2c(O)cc(O)c3c(=O)cc(-c4ccccc4Cl)oc23)[C@@H]1CO,> 30 µM (inactive)
4,Cc1cc(-c2cc(O)ccc2Cl)cc2nnc(Nc3ccc(OCCN4CCCC4)cc3)nc12,> 30 µM (inactive)
5,CCN1CCN(Cc2ccc(-c3cc4c(N[C@H](C)c5ccccc5)ncnc4[nH]3)cc2)CC1 [AEE-788],> 30 µM (inactive)
6,Cn1ncc(Cl)c1-c1cc(C(=O)N[C@H](CN)Cc2cccc(F)c2)sc1Cl [AFURESERTIB],> 30 µM (inactive)

# Target: T3, Tyrosine-protein kinase Tec (Homo sapiens, UniProt P42680)
# T3 sequence (P42680 whole entry): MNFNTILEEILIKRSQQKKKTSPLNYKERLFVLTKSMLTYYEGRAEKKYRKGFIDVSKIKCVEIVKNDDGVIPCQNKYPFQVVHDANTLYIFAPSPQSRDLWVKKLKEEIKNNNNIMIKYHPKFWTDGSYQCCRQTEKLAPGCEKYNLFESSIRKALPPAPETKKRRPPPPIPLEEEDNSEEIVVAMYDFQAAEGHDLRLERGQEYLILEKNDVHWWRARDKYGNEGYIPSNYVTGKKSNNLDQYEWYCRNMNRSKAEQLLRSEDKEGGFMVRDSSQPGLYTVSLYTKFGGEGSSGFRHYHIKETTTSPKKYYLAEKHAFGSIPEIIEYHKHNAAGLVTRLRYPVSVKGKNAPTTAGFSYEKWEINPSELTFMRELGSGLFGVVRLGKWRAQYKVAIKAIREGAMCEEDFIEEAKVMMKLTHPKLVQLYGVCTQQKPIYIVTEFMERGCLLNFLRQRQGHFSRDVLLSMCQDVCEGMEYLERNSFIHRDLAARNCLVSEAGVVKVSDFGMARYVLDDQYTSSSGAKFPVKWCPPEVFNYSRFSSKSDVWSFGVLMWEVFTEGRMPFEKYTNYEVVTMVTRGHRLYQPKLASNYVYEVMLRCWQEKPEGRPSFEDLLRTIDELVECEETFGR
row,SMILES,Kd
1,N[C@@H]1CCCN(c2c(/C=C3\SC(=O)NC3=O)cccc2-c2ccccc2)C1,> 30 µM (inactive)
2,Cc1ccc(S(=O)(=O)Nc2nc3ccccc3nc2Nc2ccc3nsnc3c2)cc1,> 30 µM (inactive)
3,CN1CC[C@@H](c2c(O)cc(O)c3c(=O)cc(-c4ccccc4Cl)oc23)[C@@H]1CO,> 30 µM (inactive)
4,Cc1cc(-c2cc(O)ccc2Cl)cc2nnc(Nc3ccc(OCCN4CCCC4)cc3)nc12,> 30 µM (inactive)
5,CCN1CCN(Cc2ccc(-c3cc4c(N[C@H](C)c5ccccc5)ncnc4[nH]3)cc2)CC1 [AEE-788],> 30 µM (inactive)
6,Cn1ncc(Cl)c1-c1cc(C(=O)N[C@H](CN)Cc2cccc(F)c2)sc1Cl [AFURESERTIB],> 30 µM (inactive)

# Target: T4, Dynamin-like GTPase OPA1, mitochondrial (Homo sapiens, UniProt O60313)
# T4 sequence (O60313 whole entry): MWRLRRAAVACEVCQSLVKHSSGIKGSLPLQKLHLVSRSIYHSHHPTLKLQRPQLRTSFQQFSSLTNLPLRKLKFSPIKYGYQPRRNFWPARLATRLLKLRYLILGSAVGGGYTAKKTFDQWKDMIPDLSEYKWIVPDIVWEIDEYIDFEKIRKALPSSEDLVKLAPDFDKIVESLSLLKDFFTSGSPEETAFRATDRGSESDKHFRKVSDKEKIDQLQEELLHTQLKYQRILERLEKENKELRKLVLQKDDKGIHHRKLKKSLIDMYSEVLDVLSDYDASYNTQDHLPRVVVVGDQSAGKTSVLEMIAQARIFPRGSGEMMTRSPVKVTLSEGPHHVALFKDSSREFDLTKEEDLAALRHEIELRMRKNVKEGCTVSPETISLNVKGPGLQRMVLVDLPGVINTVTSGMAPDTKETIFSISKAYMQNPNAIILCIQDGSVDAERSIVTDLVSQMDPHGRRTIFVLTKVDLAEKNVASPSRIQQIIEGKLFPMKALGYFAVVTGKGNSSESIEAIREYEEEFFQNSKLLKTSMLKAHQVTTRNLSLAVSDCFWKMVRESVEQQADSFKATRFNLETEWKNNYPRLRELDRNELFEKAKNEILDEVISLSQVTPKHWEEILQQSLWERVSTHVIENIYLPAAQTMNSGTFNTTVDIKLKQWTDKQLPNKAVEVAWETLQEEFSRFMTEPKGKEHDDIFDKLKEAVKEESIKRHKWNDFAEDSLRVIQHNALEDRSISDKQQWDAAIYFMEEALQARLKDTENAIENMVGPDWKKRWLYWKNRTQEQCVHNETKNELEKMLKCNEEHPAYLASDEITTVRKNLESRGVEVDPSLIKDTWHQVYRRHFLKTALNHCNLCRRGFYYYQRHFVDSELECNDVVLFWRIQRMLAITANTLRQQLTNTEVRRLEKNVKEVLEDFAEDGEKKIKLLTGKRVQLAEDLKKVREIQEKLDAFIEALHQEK
row,SMILES,Kd
1,N[C@@H]1CCCN(c2c(/C=C3\SC(=O)NC3=O)cccc2-c2ccccc2)C1,> 30 µM (inactive)
2,Cc1ccc(S(=O)(=O)Nc2nc3ccccc3nc2Nc2ccc3nsnc3c2)cc1,> 30 µM (inactive)
3,CN1CC[C@@H](c2c(O)cc(O)c3c(=O)cc(-c4ccccc4Cl)oc23)[C@@H]1CO,> 30 µM (inactive)
4,Cc1cc(-c2cc(O)ccc2Cl)cc2nnc(Nc3ccc(OCCN4CCCC4)cc3)nc12,> 30 µM (inactive)
5,CCN1CCN(Cc2ccc(-c3cc4c(N[C@H](C)c5ccccc5)ncnc4[nH]3)cc2)CC1 [AEE-788],> 30 µM (inactive)
6,Cn1ncc(Cl)c1-c1cc(C(=O)N[C@H](CN)Cc2cccc(F)c2)sc1Cl [AFURESERTIB],> 30 µM (inactive)
